Measured values as given in US20240108725A1, “METHOD FOR TREATING CANCER AND SYSTEM FOR SAME” (OTSUKA MEDICAL DEVICES CO., LTD, priority 2020, published 2024).

Test system: TL-Om1 cells
Experiment: Rate of dead cells after 5-ALA PDT in erythrocyte solution, TL-Om1 cells, Example 3
Format: cell-based, human
Method: C6 cells or human leukemia cell line TL-Oml cells were cultured in 2.5% FBS/F-12K medium (C6 cells) or 10% FBS/RPMI1640 (TL-Oml cells) supplemented with 5-ALA to a final concentration of 0.125 to 0.5 mM in a 5% CO2 incubator at 37° C. for 4 hours. After the culture, the cells were removed with a 0.25% trypsin-EDTA solution, and the collected cells were adjusted to 2×10^7 cells/mL with an erythrocyte solution (a solution in which erythrocytes and PBS were mixed at a ratio of 45:55). The cell suspension thus prepared was injected into a Tygon tube (inner diameter: 0.79 mm), wrapped around a light irradiator, and irradiated with light having a wavelength of 630 nm so that the irradiation energy density was 0.5 to 500 J/cm^2. After the irradiation, an ammonium chloride solution was added to the cell suspension to hemolyze the erythrocytes. Cells before the PDT treatment, after the PDT treatment, and after 24-hour culture were stained with the FITC Annexin V Apoptosis Detection Kit I and the rate of dead cells was analyzed with a flow cytometer.

[1] = 5-ALA 0.125 mM, 10 J/cm^2, 24 hours after irradiation
[2] = 5-ALA 0.125 mM, 50 J/cm^2, 24 hours after irradiation
[3] = 5-ALA 0.125 mM, 100 J/cm^2, 24 hours after irradiation
[4] = 5-ALA 0.125 mM, 200 J/cm^2, 24 hours after irradiation
[5] = 5-ALA 0.125 mM, 300 J/cm^2, 24 hours after irradiation
[6] = 5-ALA 0.125 mM, 400 J/cm^2, 24 hours after irradiation
[7] = 5-ALA 0.125 mM, 500 J/cm^2, 24 hours after irradiation
[8] = 5-ALA 0.25 mM, 1 J/cm^2, 24 hours after irradiation
[9] = 5-ALA 0.25 mM, 1 J/cm^2, immediately after irradiation
[10] = 5-ALA 0.25 mM, 2.5 J/cm^2, 24 hours after irradiation
[11] = 5-ALA 0.25 mM, 2.5 J/cm^2, immediately after irradiation
[12] = 5-ALA 0.25 mM, 5 J/cm^2, 24 hours after irradiation
[13] = 5-ALA 0.25 mM, 5 J/cm^2, immediately after irradiation
[14] = 5-ALA 0.25 mM, 10 J/cm^2, 24 hours after irradiation
[15] = 5-ALA 0.25 mM, 10 J/cm^2, immediately after irradiation
[16] = 5-ALA 0.25 mM, 50 J/cm^2, 24 hours after irradiation
[17] = 5-ALA 0.25 mM, 50 J/cm^2, immediately after irradiation
[18] = 5-ALA 0.25 mM, 100 J/cm^2, 24 hours after irradiation
[19] = 5-ALA 0.25 mM, 100 J/cm^2, immediately after irradiation
[20] = 5-ALA 0.25 mM, 200 J/cm^2, 24 hours after irradiation
[21] = 5-ALA 0.25 mM, 200 J/cm^2, immediately after irradiation
[22] = 5-ALA 0.25 mM, 300 J/cm^2, 24 hours after irradiation
[23] = 5-ALA 0.25 mM, 300 J/cm^2, immediately after irradiation
[24] = 5-ALA 0.25 mM, 400 J/cm^2, 24 hours after irradiation
[25] = 5-ALA 0.25 mM, 400 J/cm^2, immediately after irradiation
[26] = 5-ALA 0.25 mM, 500 J/cm^2, 24 hours after irradiation
[27] = 5-ALA 0.25 mM, 500 J/cm^2, immediately after irradiation
[28] = 5-ALA 0.5 mM, 1 J/cm^2, immediately after irradiation
[29] = 5-ALA 0.5 mM, 2.5 J/cm^2, immediately after irradiation
[30] = 5-ALA 0.5 mM, 5 J/cm^2, immediately after irradiation
[31] = 5-ALA 0.5 mM, 10 J/cm^2, immediately after irradiation
[32] = 5-ALA 0.5 mM, 50 J/cm^2, immediately after irradiation
[33] = 5-ALA 0.5 mM, 100 J/cm^2, immediately after irradiation
[34] = 5-ALA 0.5 mM, 200 J/cm^2, immediately after irradiation
[35] = 5-ALA 0.5 mM, 300 J/cm^2, immediately after irradiation
[36] = 5-ALA 0.5 mM, 400 J/cm^2, immediately after irradiation
[37] = 5-ALA 0.5 mM, 500 J/cm^2, immediately after irradiation

Compound: NCC(=O)CCC(=O)O [5-ALA, 5-aminolevulinic acid]
- Annexin V+/PI+ (%) [1]: 6%
- Annexin V+/PI− (%) [1]: 4%
- Annexin V+/PI+ (%) [2]: 6%
- Annexin V+/PI− (%) [2]: 4%
- Annexin V+/PI+ (%) [3]: 6%
- Annexin V+/PI− (%) [3]: 5%
- Annexin V+/PI+ (%) [4]: 7%
- Annexin V+/PI− (%) [4]: 4%
- Annexin V+/PI+ (%) [5]: 9%
- Annexin V+/PI− (%) [5]: 4%
- Annexin V+/PI+ (%) [6]: 12%
- Annexin V+/PI− (%) [6]: 8%
- Annexin V+/PI+ (%) [7]: 33%
- Annexin V+/PI− (%) [7]: 14%
- Annexin V+/PI+ (%) [8]: 4%
- Annexin V+/PI− (%) [8]: 6%
- Annexin V−/PI− (%) [8]: 90%
- Annexin V+/PI+ (%) [9]: 8%
- Annexin V+/PI− (%) [9]: 4%
- Annexin V−/PI− (%) [9]: 88%
- Annexin V+/PI+ (%) [10]: 4%
- Annexin V+/PI− (%) [10]: 7%
- Annexin V−/PI− (%) [10]: 89%
- Annexin V+/PI+ (%) [11]: 6%
- Annexin V+/PI− (%) [11]: 4%
- Annexin V−/PI− (%) [11]: 89%
- Annexin V+/PI+ (%) [12]: 4%
- Annexin V+/PI− (%) [12]: 8%
- Annexin V−/PI− (%) [12]: 88%
- Annexin V+/PI+ (%) [13]: 7%
- Annexin V+/PI− (%) [13]: 4%
- Annexin V−/PI− (%) [13]: 88%
- Annexin V+/PI+ (%) [14]: 6%
- Annexin V+/PI− (%) [14]: 8%
- Annexin V−/PI− (%) [14]: 86%
- Annexin V+/PI+ (%) [15]: 6%
- Annexin V+/PI− (%) [15]: 4%
- Annexin V−/PI− (%) [15]: 90%
- Annexin V+/PI+ (%) [16]: 9%
- Annexin V+/PI− (%) [16]: 9%
- Annexin V−/PI− (%) [16]: 83%
- Annexin V+/PI+ (%) [17]: 8%
- Annexin V+/PI− (%) [17]: 4%
- Annexin V−/PI− (%) [17]: 87%
- Annexin V+/PI+ (%) [18]: 10%
- Annexin V+/PI− (%) [18]: 8%
- Annexin V−/PI− (%) [18]: 83%
- Annexin V+/PI+ (%) [19]: 10%
- Annexin V+/PI− (%) [19]: 4%
- Annexin V−/PI− (%) [19]: 85%
- Annexin V+/PI+ (%) [20]: 11%
- Annexin V+/PI− (%) [20]: 10%
- Annexin V−/PI− (%) [20]: 79%
- Annexin V+/PI+ (%) [21]: 12%
- Annexin V+/PI− (%) [21]: 5%
- Annexin V−/PI− (%) [21]: 82%
- Annexin V+/PI+ (%) [22]: 14%
- Annexin V+/PI− (%) [22]: 11%
- Annexin V−/PI− (%) [22]: 75%
- Annexin V+/PI+ (%) [23]: 13%
- Annexin V+/PI− (%) [23]: 4%
- Annexin V−/PI− (%) [23]: 82%
- Annexin V+/PI+ (%) [24]: 34%
- Annexin V+/PI− (%) [24]: 16%
- Annexin V−/PI− (%) [24]: 50%
- Annexin V+/PI+ (%) [25]: 18%
- Annexin V+/PI− (%) [25]: 4%
- Annexin V−/PI− (%) [25]: 77%
- Annexin V+/PI+ (%) [26]: 72%
- Annexin V+/PI− (%) [26]: 21%
- Annexin V−/PI− (%) [26]: 7%
- Annexin V+/PI+ (%) [27]: 33%
- Annexin V+/PI− (%) [27]: 3%
- Annexin V−/PI− (%) [27]: 63%
- Annexin V+/PI+ (%) [28]: 7%
- Annexin V+/PI− (%) [28]: 3%
- Annexin V−/PI− (%) [28]: 89%
- Annexin V+/PI+ (%) [29]: 5%
- Annexin V+/PI− (%) [29]: 2%
- Annexin V−/PI− (%) [29]: 92%
- Annexin V+/PI+ (%) [30]: 7%
- Annexin V+/PI− (%) [30]: 3%
- Annexin V−/PI− (%) [30]: 90%
- Annexin V+/PI− (%) [31]: 3%
- Annexin V−/PI− (%) [31]: 89%
- Annexin V+/PI− (%) [32]: 3%
- Annexin V−/PI− (%) [32]: 83%
- Annexin V+/PI− (%) [33]: 3%
- Annexin V−/PI− (%) [33]: 80%
- Annexin V+/PI− (%) [34]: 3%
- Annexin V−/PI− (%) [34]: 78%
- Annexin V+/PI+ (%) [35]: 23%
- Annexin V+/PI− (%) [35]: 3%
- Annexin V−/PI− (%) [35]: 72%
- Annexin V+/PI+ (%) [36]: 32%
- Annexin V+/PI− (%) [36]: 3%
- Annexin V−/PI− (%) [36]: 61%
- Annexin V+/PI+ (%) [37]: 62%
- Annexin V+/PI− (%) [37]: 2%
- Annexin V−/PI− (%) [37]: 30%
